Experimental data reported in US20230054976A1, “METHODS FOR INHIBITION OF ALPHA-SYNUCLEIN mRNA USING SMALL MOLECULES” (The Scripps Research Institute, priority 2019, published 2023).

Key:
PrP 5′ UTR = settings: SH-SY5Y cells
[1] = target: unlabeled SNCA IRE RNA (RNA-0); assay: Competitive binding assay (2-AP), RNA-0; settings: read-out: competitive Kd; RNA-0, native SNCA IRE
Experimental: I and I0 are the observed fluorescence intensity in the presence and absence of 2-AP RNA. Δε is the difference between the fluorescence intensity in the absence and presence of infinite 2-AP RNA. […] EC50 was calculated from Eq. (1). […] The change of fluorescence intensity was fit to Eq. (2):
θ is the percentage of 2-AP RNA bound. [RNA] is the concentration of 2-AP RNA. EC50 is the EC50 of Synucleozid determined in the assay above. [Synucleozid] is the concentration of Synucleozid. Cc is the concentration of competitive RNA. Kd is competitive dissociation constant and A is a constant.

[2] = system: SH-SY5Y cells transcriptome; assay: RNA-Seq transcriptome-wide differential expression; format: cell-based, human; settings: 48 h; Synucleozid 1.5 μM vs vehicle; siRNA 0.1 μM vs scrambled control
Experimental: RNA-Seq. SH-SY5Y cells were treated or transfected as described above for 48 h with Synucleozid (1.5 μM) and siRNA (0.1 μM). Total RNA was extracted using a miRNeasy Mini Kit (Qiagen, as described above) with on-column DNase I treatment. Qubit 2.0 Fluorometer (Invitrogen) was used for total RNA quantification. Quality of total RNA was assessed by using an Agilent Technologies 2100 Bioanalyzer RNA nano chip. Samples which have RNA integrity number >8.0 were used in future experiments. Probes provided by the NEBNext rRNA depletion module (catalog no.: E6310L, New England Biosciences) were used to deplete rRNA on approximate 500 ng of total RNA according to the manufacturer's recommendations. Library preparation was done with NEBNext Ultra 11 Directional RNA kit (catalog no.: E7760, New England Biosciences) according to the manufacturer's instructions. RNA samples were heated to 94° C. and simultaneously chemically fragmented in a divalent cation buffer for 15 min. Conversion of fragmented RNA to the first strand of cDNA was done with random hexamer priming and reverse transcription. To synthesize second strand, RNA template was removed and dUTP in place of dTTP was incorporated. […] Every sample with a base quality score >Q30 (<1 error per 1000 bp) generated around 20-25 million reads. Transcript abundance from these RNA samples were quantified using Kallisto (12). […]

SNCA 5′ UTR = assay: Luciferase reporter assay, SNCA 5′ UTR, SH-SY5Y cells; format: cell-based, human
[3] = system: construct in which the SNCA 5′ UTR was absent; assay: Luciferase reporter assay, construct lacking SNCA 5′ UTR, SH-SY5Y cells; format: cell-based, human; settings: cellular
Source text: pIRES-Luc-EGFP-puro: The firefly luciferase open reading frame (ORF) was amplified with primers 1 and 2 using pmirGLO-dual-luciferase (Promega, E1330) as a template. The PCR product was then fused with linearized pIRES-EGFP-puro (Addgene plasmid #45567) digested with XhoI and SacI, placing the luciferase ORF upstream of the IRES sequence. pCDH-Luc-EGFP-puro: The firefly luciferase open reading frame (ORF) was amplified with primers 15 and 16 using pmirGLO-dual-luciferase (Promega, E1330) as a template. The PCR product was then fused with linearized pCDH-CB-IRES-copGFP-T2A-Puro digested with BamHI and NotI, placing the luciferase ORF upstream of IRES sequence. Luciferase assay. The effect of Synucleozid treatment on translation from various IRE containing transcripts was determined using luciferase reporter assay. […] Luciferase reporter activity in each lysate was monitored using the dual luciferase reporter assay system kit (Promega. Madison, Wis., USA) according to the manufacturer's instructions. Luminescence from firefly luciferase reaction was measured using a microplate luminometer (Wallac 1420, Perkin Elmer) at 485 nm excitation and 535 nm emission wavelengths. Firefly luciferase reaction was then quenched by adding Stop & Glo reagent, and the internal fluorescence from GFP measured at the same setting was used to normalize luciferase expression. […]

Structure (SMILES): N=C(N)c1ccc(Nc2ccc(-c3cc4ccc(C(=N)N)cc4[nH]3)cc2)cc1 [Synucleozid A]
- effect on translation of luciferase fused to PrP 5′ UTR (PrP 5′ UTR): no effect
- Kd [1]: 1.5 ± 0.3 µM
- genes unchanged / genes detected [2]: 19979/20034
- genes unchanged, percentage [2]: 99.7%
- inhibition of translation, luciferase fused to SNCA 5′ UTR (SNCA 5′ UTR; 250 nM): ~10%
- inhibition of translation, luciferase fused to SNCA 5′ UTR (SNCA 5′ UTR; 1 μM): ~40%
- inhibitory effect on luciferase construct lacking SNCA 5′ UTR [3]: No inhibitory effect
